Consider 4 compounds from patent publication US4530923A, “N-acetamilide, N-(phenoxy-2-propanol)- and N-(phenylamino-2-propanol)-cyclicamines” (Egyt Gyogyszervegyeszeti Gyar, priority 1981, dated 1985).

Like-named read-outs stand apart in the source and are kept apart here.

Data set [1] is described as follows: therapeutic index LD50:ED50 related to antiarrhythmic activity on auricle. The data set is classed as in vivo, LD50: male Wistar rats; ED50: cats (b90) / rats (b59). As to conditions: rat, in vivo, iv, ED50 i.v. The procedure:
(§1) The animals were anaesthetized with chloralose-urethane [50/30 mg/kg, i.v.]. The minimal strength of the current necessary to evoke the ventricular and auricular fibrillo-flutter, respectively, was followed by the method of Szekeres and al. [Szekeres, Mehes and Papp: Brit. J. Pharmacol. 17, 167 (1961); Szekeres and Papp: Experimental Cardiac Arrhythmias and Antiarrhythmic Drugs, Akademiai Kiado, Budapest, 1971; Szekeres and Papp: Experimental Cardiac Arrhythmias, Hdb. Exp. Pharmacol. XVI/3, 131, (1975).
(§2) The therapeutic indices related to the antiarrhythmic activity were calculated on the basis of the LD50 /ED50 ratio, where LD50 is the doses resulting in the death of the 50% of the animals (rats), and ED50 is the dosis provoking a 50% rise in the electrical threshold for fibrillation on rats. The LD50 values were determined on male Wistar rats weighing 180 to 220 g by the method of Litchfield and Wilcoxon [J. Pharmacol. Exp. Ther. 95, 49 (1949)].
(§3) The i.v. and p.os LD50 values were determined on rats.

For data set [2], the system named is Ventricle. The data set is described as follows: antiarrhythmic activity, electrical fibrillation threshold of ventricle, anaesthetized cats. The data set is classed as in vivo. The settings on record: relative to quinidine = 1.00, from ED50 mg/kg, i.v., fibrillation threshold method. As to the method:
as §1, §2
(§4) ^+ Relative activity calculated from the antiarrhythmic activity
(§5) [ED50 mg/kg, i.v.] determined on cats by the fibrillation threshold

Data set [3] deals with right auricle. The data set is described as follows: heartelectrophysiological test on isolated rabbit heart preparation, right auricle. The settings on record: Oryctolagus cuniculus, percentage of the original values, read-out: Spontaneous frequency /right auricle/; for inhibition at 0.2 µg/mL: 0.2 mg/l.
The test system of data set [4] is isolated rabbit heart preparation. The data set is described as follows: heartelectrophysiological methods on an isolated rabbit heart preparation (summary). The source says: The compounds of Examples 5, 6 and 7, tested by heartelectrophysiological methods on an isolated rabbit heart preparation decrease the spontaneous frequency of right ventricle, increase the electric stimulus threshold, prolong the effective refractory period and also the time of stimulus conduction. The data referring hereto are given in Table II, in the percentage of the original values.

Data set [5] deals with left auricle. The data set can be described thus: heartelectrophysiological test on isolated rabbit heart preparation, left auricle. As to conditions: Oryctolagus cuniculus, percentage of the original values; for activation at 0.5 µg/mL: 0.5 mg/l; for activation at 0.2 µg/mL: 0.2 mg/l; for activation at 5 µg/mL: 5 mg/l.
The test system of data set [6] is papillary muscle. The data set can be described thus: heartelectrophysiological test on isolated rabbit heart preparation, papillary muscle. As to conditions: Oryctolagus cuniculus, percentage of the original values; for activation at 0.5 µg/mL: 0.5 mg/l; for activation at 0.2 µg/mL: 0.2 mg/l; for activation at 5 µg/mL: 5 mg/l.
The subject of data set [7] is Auricle. The data set can be described thus: antiarrhythmic activity, electrical fibrillation threshold of auricle, anaesthetized cats. The class given is in vivo. The settings on record: relative to quinidine = 1.00, from ED50 mg/kg, i.v., fibrillation threshold method. The procedure:
as §1, §2, §4, §5

Data set [8] can be described thus: therapeutic index LD50:ED50 related to antiarrhythmic activity on ventricle. The data set is classed as in vivo, LD50: male Wistar rats; ED50: cats (b90) / rats (b59). The settings on record: rat, in vivo, iv; LD50 p.os rats; ED50 i.v. The procedure: as §1, §2, §3
The test system of data set [9] is Ventricle. Described as above. As to conditions: for Ventricle: Therapeutic index LD50:ED50 /i.v.//i.v./: LD50 i.v. rats. The class given is in vivo, LD50: male Wistar rats; ED50: cats (b90) / rats (b59). The procedure:
as §1, §2, §3

Data set [10] deals with Auricle. The data set can be described thus: therapeutic index LD50:ED50 related to antiarrhythmic activity on auricle. The class given is in vivo, LD50: male Wistar rats; ED50: cats (b90) / rats (b59). The procedure:
as §1, §2, §3

The test system of data set [11] is nervus ischiadicus of frog. The data set can be described thus: local anaesthetic effect on action potential of nervus ischiadicus of frog.
For data set [12], the system named is dogs. The data set can be described thus: haemodynamics in dogs anaesthetized with nembutal. The data set is classed as in vivo. The settings on record: nembutal anaesthesia, 0.5 to 2 mg/kg i.v. The procedure:
On dogs anaesthetized with nembutal (35 mg/kg, i.v.) in an i.v. dosis of 0.5 to 2 mg/kg the compounds slightly decrease the arterial blood pressure. The compounds of Examples 5 and 6 decrease the coronary resistance, improve the oxygenization of the heart muscle, increase the blood flow of the artery femoralis, and the compound of Example 5 increases also the blood flow of arteria carotis.

For data set [13], the system named is cardiac rhythm disturbances. The settings on record: cited from earlier work.
The mark [14] stands for this setting: LD50 i.v. rats, read-out: Auricle: Therapeutic index LD50:ED50 /i.v.//i.v./.
[15] abbreviates: LD50 p.os rats, read-out: Auricle: Therapeutic index LD50:ED50 /p.os//i.v./.
Setting [16] is: read-out: Effective refractory period /left auricle/.
Where [17] appears, read: read-out: Electrical threshold /left auricle/.
The mark [18] stands for this setting: read-out: Time of the stimulus-conduction /left auricle/.
[19] abbreviates: read-out: Effective refractory period /papillary muscle/.
The mark [20] stands for this setting: read-out: Electrical threshold /papillary muscle/.
Where [21] appears, read: ventricle (from Table I), versus quinidine.

In the case of `Cc1cccc(C)c1NCC(O)CN1CCCCCC1` (stereo not shown) [Example 7, 1-hexamethyleneimino-3-(2,6-dimethylanilino)propanol-2], the selectivity ratio in data set [1] (setting [14]) was determined as 20.7; in data set [1] (setting [15]) it was 439; in data set [8], 209. In [2], the “Ventricle: Relative activity” value was determined as 7.85. In data set [3] (0.5 mg/l), the inhibition at 0.5 µg/mL was 9 ± 1%. In addition, the “effective refractory period (in words)” value in data set [4] is on record as “prolong”. The “electric stimulus threshold (in words)” value in data set [4] is recorded as “increase”. Also, the “spontaneous frequency of right ventricle (in words)” value (from here on “spontaneous frequency”) in data set [4] is listed as “decrease”. For the same compound, the “time of stimulus conduction (in words)” value in data set [4] is reported as “prolong”. Also, the activation at 0.5 µg/mL is 11% in [5] (setting [16]); 25% in data set [5] (setting [17]); 28% in data set [5] (setting [18]); 10% in [6] (setting [19]); 29% in data set [6] (setting [20]). In data set [7], the “Auricle: Relative activity” value was determined as 8.54. Also, the “Ventricle: Therapeutic index LD50:ED50 /i.v.//i.v./” value in data set [9] came to 9.9. Besides, the “quotient i.v. LD50 / i.v. ED50, times higher than that of quinidine” value in data set [9] (setting [21]) is “about 1.4 times”.
For `Cc1cccc(C)c1OCC(O)CN1CCCCCCC1` (stereo not shown) [Example 6, 1-(2,6-dimethylphenoxy)-3-heptamethyleneimino-propanol-2], the selectivity ratio in data set [1] (setting [14]) is 23.9; in [1] (setting [15]), 1960; in [8] it was 229. Moreover, the “therapeutic index related to the supraventricular activity (in words)” value in data set [10] (among the tested compounds) is on record as “most preferable therapeutic index”. Also, in data set [10] (i.v. LD50 / i.v. ED50, versus quinidine), the “therapeutic index related to supraventricular activity (i.v. toxicity), times higher than that of quinidine” value is reported as “about 1.8 times”. In addition, the “therapeutic index related to supraventricular activity (per os toxicity), times higher than that of quinidine” value in data set [10] (per os LD50 / i.v. ED50, versus quinidine) is given as roughly 7 times. The “Ventricle: Relative activity” value in [2] was 2.80. Also, the “local anaesthetic effect (in words)” value in data set [11] is “strong local anaesthetic effect”. Also, the “local anaesthetic effect, times stronger than that of lidocaine” value in data set [11] (versus lidocaine) is reported as 2.7 times. In addition, the “blood flow of the artery femoralis” value in data set [12] is “increase”. Moreover, the coronary resistance result in data set [12] was “decrease”. Moreover, the “oxygenization of the heart muscle” value in data set [12] is “improve”. For the same compound, the inhibition at 0.2 µg/mL in [3] came out at 7 ± 1%. For the same compound, in data set [4], the “effective refractory period (in words)” value is “prolong”. For the same compound, the “electric stimulus threshold (in words)” value in [4] was “increase”. Moreover, the “spontaneous frequency” value in [4] is recorded as “decrease”. The “time of stimulus conduction (in words)” value in [4] is on record as “prolong”. In addition, the activation at 0.2 µg/mL in data set [5] (setting [16]) worked out at 3%; in [5] (setting [17]), 19%; in data set [5] (setting [18]), 15%; in [6] (setting [19]) it was 4%; in [6] (setting [20]), 9%. Moreover, in data set [7], the “Auricle: Relative activity” value turned out to be 12.50. In data set [9], the “Ventricle: Therapeutic index LD50:ED50 /i.v.//i.v./” value worked out at 2.8. In data set [9] (setting [21]), the “quotient per os LD50 / i.v. ED50, times higher than that of quinidine” value is “about 1.6 times”.
As for `C=C[C@H]1C[N@@]2CC[C@H]1C[C@@H]2[C@@H](O)c1ccnc2ccc(OC)cc12` [Quinidine, reference compound], the selectivity ratio in [1] (setting [14]) came to 13.4; in [1] (setting [15]), 280; in data set [8], 145. In data set [2], the “Ventricle: Relative activity” value turned out to be 1.00. In addition, the inhibition at 5 µg/mL in data set [3] (5 mg/l) came to 12 ± 1%. In addition, the activation at 5 µg/mL in data set [5] (setting [16]) was found to be 32%; in data set [5] (setting [17]), 120%; in data set [5] (setting [18]) it was 90%; in data set [6] (setting [19]), 55%; in [6] (setting [20]), 56%. The “Auricle: Relative activity” value in data set [7] was 1.00. The “effectiveness in cardiac rhythm disturbances” value in data set [13] (Br. Heart J. 38, 381 (1976)) was “effective primarily in the treatment of arrhythmia, auricular flutter, fibrillation and paroxysmal tachycardia”. The toxic side-effects entry in data set [13] (background literature) is “induce subjective hyperaesthesia, create vision problems, headache and nausea, and give rise to grave asthmatic symptoms”. In data set [9], the “Ventricle: Therapeutic index LD50:ED50 /i.v.//i.v./” value is 6.9.
With `Cc1cccc(C)c1OCC(O)CN1CCCCCC1` (stereo not shown) [Example 5, 1-(2,6-dimethylphenoxy)-3-hexamethyleneimino-propanol-2], in [1] (setting [14]), the selectivity ratio came out at 13.3. Moreover, in [1] (setting [15]), the selectivity ratio worked out at 189. Moreover, the “Ventricle: Relative activity” value in [2] is 8.04. Also, in data set [12], the “blood flow of arteria carotis” value is “increases”, the “blood flow of the artery femoralis” value was “increase”, the coronary resistance result was “decrease” and the “oxygenization of the heart muscle” value was “improve”. Also, the inhibition at 0.2 µg/mL in data set [3] turned out to be 4 ± 2%. In addition, in data set [4], the “effective refractory period (in words)” value is on record as “prolong”, the “electric stimulus threshold (in words)” value was “increase”, the “spontaneous frequency” value is reported as “decrease” and the “time of stimulus conduction (in words)” value was “prolong”. In addition, the activation at 0.2 µg/mL in [5] (setting [16]) came out at 10%. For the same compound, in [5] (setting [17]), the activation at 0.2 µg/mL stood at 24%. Further, the activation at 0.2 µg/mL in data set [5] (setting [18]) amounted to 38%. Further, the activation at 0.2 µg/mL in data set [6] (setting [19]) was found to be 9%. The activation at 0.2 µg/mL in data set [6] (setting [20]) stood at 46%. For the same compound, in data set [7], the “Auricle: Relative activity” value came out at 7.14. Further, the selectivity ratio in data set [8] stood at 110. Moreover, the “Ventricle: Therapeutic index LD50:ED50 /i.v.//i.v./” value in [9] came to 7.7.
